Assay results as given in patent US10604509B2, “Nrf2 regulators” (GlaxoSmithKline Intellectual Property Development Limited, priority 2015, dated 2020).
Where a name gives a salt, the structure may show the parent alone.

What follows are compounds tested on NQO1 specific enzyme activity in BEAS-2B cells (assay: BEAS-2B NQO1 MTT assay). Conditions: BEAS-2B cells, 48 hours with compound, MTT readout; formic acid salt; read-out: EC50 of NQO1 specific activity induction.
Format: cell-based
Method in brief: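 NQO1 specific activity, an NRF2 activation marker, read kinetically as absorbance change at 570 nm for 30 min after MTT cocktail addition to crude lysates of BEAS-2B cells exposed 48 h to compound. Three-parameter fit of Delta OD/min against log concentration gives EC50; lysate portion used for Cell Titer Glo.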

`Cc1ccc(C(c2ccc3c(nnn3C)c2C)C(C)(C)C(=O)O)cc1Cn1ccnc1CN1CCCCCC1` (centres unmarked) [Example 151, 3-(3-((2-(Azepan-1-ylmethyl)-1H-imidazol-1-yl)methyl)-4-methylphenyl)-3-(1,4-dimethyl-1H-benzo-[d][1,2,3]triazol-5-yl)-2,2-domethylpropanoic acid, 0.3 formic acid salt] gave an EC50 of 1 to 10 nM.

Same assay, conditions: BEAS-2B cells, 48 hours with compound, MTT readout; read-out: EC50 of NQO1 specific activity induction

Compared with “3-(1,4-dimethyl-1H-benzo[d][1,2,3]triazol-5-yl)-3-(3-((8-methoxy-4-methyl-4,5-dihydro-1H-benzo[c]azepin-2(3H)-yl)methyl)-4-methylphenyl)propanoic Acid [Example 7]”, `CCC1CCN(Cc2nccn2Cc2cc(C(CCc3cn(CC)nn3)C(C)(C)C(=O)O)ccc2C)CC1` (single isomer, unassigned) [Example 250, 5-(1-ethyl-1H-1,2,3-triazol-4-yl)-3-(3-((2-((4-ethylpiperidin-1-yl)methyl)-1H-imidazol-1-yl)methyl)-4-methylphenyl)-2,2-dimethylpentanoic acid] is lower in EC50: 1000 to 10000 nM for the first, 10 to 100 nM for the second.

Same assay, conditions: Homo sapiens, BEAS-2B, 48 h, BEAS-2B cells, 48 hours with compound, MTT readout; read-out: EC50 of NQO1 specific activity induction

Compared with `CCn1cc(CCC(c2ccc(C)c(CN3Cc4cnccc4OC(C)(C)C3)c2)C(C)C(=O)O)nn1` (single isomer, unassigned) [Example 227, 3-(3-((2,2-Dimethyl-2,3-dihydropyrido[3,4-f][1,4]oxazepin-4(5H)-yl)methyl)-4-methylphenyl)-5-(1-ethyl-1H-1,2,3-triazol-4-yl)-2-methylpentanoic acid, Trifluoroacetic acid salt], `Cc1ccc([C@H](CC(=O)O)c2ccc3c(nnn3C)c2C)cc1CN1Cc2ccncc2OC(C)(C)C1` [Example 264, (S)-3-(1,4-dimethyl-1H-benzo[d][1,2,3]triazol-5-yl)-3-(3-((2,2-dimethyl-2,3-dihydropyrido[4,3-f][1,4]oxazepin-4(5H)-yl)methyl)-4-methylphenyl)propanoic acid] is higher in EC50: 100 to 1000 nM for the first, 1000 to 10000 nM for the second.

`CCC1CN(Cc2cc(C(CC(=O)O)c3ccc4c(nnn4C)c3C)ccc2C)Cc2ccc(OC)cc2O1` (centres unmarked) [Example 84, 3-(1,4-Dimethyl-1H-benzo[d][1,2,3]triazol-5-yl)-3-(3-((2-ethyl-8-methoxy-2,3-dihdyrobenzo[f][1,4]oxazepin-4(5H)-yl)methyl)-4-methylphenyl)propanoic acid, form acid salt] and `CCC1CN(Cc2cc([C@@H](CC(=O)O)c3ccc4c(nnn4C)c3C)ccc2C)Cc2ccccc2O1` (stereo partly drawn) [Example 6, (3R)-3-(1,4-Dimethyl-1H-benzo[d][1,2,3]triazol-5-yl)-3-(3-((2-ethyl-2,3-dihydrobenzo[f][1,4]oxazepin-4(5H)-yl)methyl)-4-methylphenyl)propanoic Acid, Trifluoroacetic Acid Salt] fall in the same range of EC50: 100 to 1000 nM for the first, 100 to 1000 nM for the second.

First: Cc1ccc(C(CC(=O)O)c2ccc3c(nnn3C)c2C)cc1CN(C)Cc1ccc(Br)cc1 (centres unmarked) [Example 16, Ammonium 3-(3-(((4-bromobenzyl)(methyl)amino)methyl)-4-methylphenyl)-3-(1,4-dimethyl-1H-benzo[d][1,2,3]triazol-5-yl)propanoate]
Second: Cc1ccc([C@@H](CC(=O)O)c2ccc3c(nnn3C)c2C)cc1CN1Cc2ccc(F)cc2OC(C)(C)C1 [Example 59, (R)-3-(1,4-Dimethyl-1H-benzo[d][1,2,3]triazol-5-yl)-3-(3-((8-fluoro-2,2-dimethyl-2,3-dihydrobenzo[f][1,4]oxazepin-4(5H)-yl)methyl)-4-methylphenyl)propanoic acid]
The EC50 of the first is higher: 1000 to 10000 nM for the first, 10 to 100 nM for the second.

First: CC[C@@H]1CN(Cc2cc([C@@H](c3ccc4c(nnn4CC)c3C)C(C)(C)C(=O)O)ccc2C)Cc2cnccc2O1 [Example 188, (S)-3-(3-(((R)-2-Ethyl-2,3-dihydropyrido[3,4-f][1,4]oxazepin-4(5H)-yl)methyl)-4-methylphenyl)-3-(1-ethyl-4-methyl-1H-benzo[d][1,2,3]triazol-5-yl)-2,2-dimethylpropanoic Acid]
Second: CC[C@@H]1CN(Cc2cc(C(CC(=O)O)c3ccc4c(nnn4C)c3C)ccc2C)Cc2cnccc2O1 (stereo partly drawn) [Example 86, 3-(1,4-Dimethyl-1H-benzo[d][1,2,3]triazol-5-yl)-3-(3-(((R)-2-ethyl-2,3-dihydropyrido[3,4-f][1,4]oxazepin-4(5H)-yl)methyl)-4-methylphenyl)propanoic acid]
The EC50 of the first is lower: less than 1 nM for the first, 100 to 1000 nM for the second. The first is the more potent here.

First: CC[C@@H]1CN(Cc2cc(C(CC(=O)O)c3ccc4c(nnn4CC)c3F)ccc2C)Cc2ccccc2O1 (single isomer, unassigned) [Example 181]
Second: Cc1ccc(C(CC(=O)O)c2ccc3c(nnn3C)c2C)cc1CN1Cc2ccccc2OC(C(C)C)C1 (centres unmarked) [Example 72, 3-(1,4-dimethyl-1H-benzo[d][1,2,3]triazol-5-yl)-3-(3-((2-isopropyl-2,3-dihydrobenzo[f][1,4]oxazepin-4(5H)-yl)methyl)-4-methylphenyl)propanoic acid, formic acid salt]
The EC50 of the first is lower: 10 to 100 nM for the first, 1000 to 10000 nM for the second. The first is the more potent here.

First: CCC1CN(Cc2cc(C(c3ccc4c(nnn4C)c3C)C(C)(C)C(=O)O)ccc2C)CCC(C2CC2)O1 (centres unmarked) [Example 246, 3-(3-((7-Cyclopropyl-2-ethyl-1,4-oxazepan-4-yl)methyl)-4-methylphenyl)-3-(1,4-dimethyl-1H-benzo[d][1,2,3]triazol-5-yl)-2,2-dimethylpropanoic Acid]
Second: Cc1ccc(C(c2ccc3c(nnn3C)c2C)C(C)(C)C(=O)O)cc1CN1CCCn2cncc2C1 (centres unmarked) [Example 37, 3-(3-((6,7-Dihydro-5H-imidazo[1,5-a][1,4]diazepin-8(9H)-yl)methyl)-4-methylphenyl)-3-(1,4-dimethyl-1H-benzo[d][1,2,3]triazol-5-yl)-2,2-dimethylpropanoate, Sodium salt]
The EC50 of the first is lower: 100 to 1000 nM for the first, 1000 to 10000 nM for the second. The first is the more potent here.

First: CCn1nnc2c(C)c([C@H](c3ccc(C)c(CN4Cc5ccccc5OC(C)(C)C4)c3)C(C)(C)C(=O)O)ccc21 (single isomer, unassigned; enantiomer b) [Example 207]
Second: Cc1ccc(C(c2ccc3c(nnn3C)c2C)C(C)(C)C(=O)O)cc1CN1Cc2cccc(F)c2OC(C)(C)C1 (centres unmarked) [Example 35, 3-(1,4-Dimethyl-1H-benzo[d][1,2,3]triazol-5-yl)-3-(3-((9-fluoro-2,2-dimethyl-2,3-dihydrobenzo[f][1,4]oxaz-epin-4(5H)-yl)methyl)-4-methylphenyl)-2,2-dimethylpropanoic acid]
The EC50 of the first is higher: 10 to 100 nM for the first, 1 to 10 nM for the second. The second is the more potent here.

First: Cc1c(C(CC(=O)O)c2ccc(Cl)c(CN3CCOc4ccccc4C3)c2)ccc2c1nnn2C (centres unmarked) [Example 99, 3-(4-Chloro-3-((2,3-dihydrobenzo[f][1,4]oxazepin-4(5H)-yl)methyl)phenyl)-3-(1,4-dimethyl-1H-benzo[d][1,2,3]triazol-5-yl)propanoic Acid, Formic Acid Salt]
Second: Cc1ccc2c(c1)OC(C)(C)CN(Cc1cc([C@H](CC(=O)O)c3ccc4c(nnn4C)c3C)ccc1C)C2 [Example 180, (S)-3-(1,4-Dimethyl-1H-benzo[d][1,2,3]triazol-5-yl)-3-(4-methyl-3-((2,2,8-trimethyl-2,3-dihydrobenzo[f][1,4]oxazepin-4(5H)-yl)methyl)phenyl) propanoic acid]
The EC50 of the first is higher: 1000 to 10000 nM for the first, 10 to 100 nM for the second. The second is the more potent here.

First: CC[C@@H]1CN(Cc2cc(C(CCc3cn(CC)nn3)CC(=O)O)ccc2Cl)Cc2ncccc2O1 (stereo partly drawn) [Example 231, 3-(4-Chloro-3-(((R)-2-ethyl-2,3-dihydropyrido[2,3-f][1,4]oxazepin-4(5H)-yl)methyl)phenyl)-5-(1-ethyl-1H-1,2,3-triazol-4-yl)pentanoic Acid]
Second: CC[C@@H]1CN(Cc2cc(C(c3ccc4c(c3)nnn4C)C(C)(C)C(=O)O)ccc2C)Cc2ccccc2O1 (stereo partly drawn) [Example 103, Ammonium 3-(3-(((R)-2-Ethyl-2,3-dihydrobenzo[f][1,4]oxazepin-4(5H)-yl)methyl)-4-methylphenyl)-2,2-dimethyl-3-(1-methyl-1H-benzo[d][1,2,3]triazol-5-yl)propanoate]
The EC50 of the first is higher: 100 to 1000 nM for the first, less than 1 nM for the second.

First: CCC1CCN(Cc2nccn2Cc2cc(C(c3ccc4c(nnn4C)c3C)C(C)(C)C(=O)O)ccc2Cl)CC1 (centres unmarked) [Example 236, 3-(4-Chloro-3-((2-((4-ethylpiperidin-1-yl)methyl)-1H-imidazol-1-yl)methyl)phenyl)-3-(1,4-dimethyl-1H-benzo[d][1,2,3]triazol-5-yl)-2,2-dimethylpropanoic Acid]
Second: Cc1ccc(C(CC(=O)O)c2ccc3c(nnn3C)c2C)cc1Cn1ccnc1C(C)C1CCCCC1 (centres unmarked) [Example 133, Ammonium 3-(3-((2-(1-cyclohexylethyl)-1H-imidazol-1-yl)methyl)-4-methylphenyl)-3-(1,4-dimethyl-1H-benzo[d][1,2,3]triazol-5-yl)propanoate]
The EC50 of the first is lower: less than 1 nM for the first, 100 to 1000 nM for the second. The first is the more potent here.

Compared with `CCc1nc(C2CCCCN2Cc2cc(C(CC(=O)O)c3ccc4c(nnn4C)c3C)ccc2C)no1` (centres unmarked) [Example 12, Ammonium 3-(1,4-dimethyl-1H-benzo[d][1,2,3]triazol-5-yl)-3-(3-((2-(5-ethyl-1,2,4-oxadiazol-3-yl)piperidin-1-yl)methyl)-4-methylphenyl)propanoate], `CC[C@@H]1CN(Cc2cc([C@H](c3ccc4c(nnn4C)c3C)[C@@H](C)C(=O)O)ccc2C)Cc2ccccc2O1` [Example 40, (2R,3R)-3-(1,4-Dimethyl-1H-benzo[d][1,2,3]triazol-5-yl)-3-(3-(((R)-2-ethyl-2,3-dihydrobenzo[f][1,4]oxazepin-4(5H)-yl)methyl)-4-methylphenyl)-2-methylpropanoic Acid] is lower in EC50: 100 to 1000 nM for the first, 10 to 100 nM for the second. The second is the more potent here.

Same assay, conditions: Homo sapiens, BEAS-2B, 48 h, read-out: EC50 of NQO1 specific activity induction

Work on `CC[C@@H]1CN(Cc2cc([C@@H](c3ccc4c(nnn4C)c3C)C(C)(C)C(=O)O)ccc2C)Cc2cnccc2O1` [Example 24, (S)-3-(1,4-Dimethyl-1H-benzo[d][1,2,3]triazol-5-yl)-3-(3-(((R)-2-ethyl-2,3-dihydropyrido[3,4-f][1,4]oxazepin-4(5H)-yl)methyl)-4-methylphenyl)-2,2-dimethylpropanoic Acid, Formic Acid Salt] yielded an EC50 of less than 1 nM.
